This passage reports GI50 and TGI results from PubChem BioAssay (NCI).

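48-hour exposure; five concentrations; linearly interpolated endpoints. GI50 = concentration required for 50% inhibition of growth. The concentration for full growth arrest is given as TGI.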

Some test systems named below: RXF 393 renal; OVCAR-8 ovarian; U251 CNS; SK-OV-3 ovarian; SK-MEL-5 melanoma; A549 NSCLC; 786-0 renal; NCI-H23 lung; HT29 colon; HCT-116 colon.
What all share (test): inhibition of tumour cell growth, NCI panel, 48 h

With `Nc1nc(Cl)cc2c1ncn2C1OC(CO)C(O)C1O` (stereo not given), the GI50 in the assay with RXF 393 renal, in the assay on OVCAR-8 ovarian, with U251 CNS, in the assay on SK-OV-3 ovarian, in the assay on SK-MEL-5 melanoma and in the assay with A549 NSCLC was > 100 µM in each case. Further, the GI50 with 786-0 renal, with NCI-H23 lung and in the assay on HT29 colon was > 100 µM in each case. The TGI in the assay on RXF 393 renal, with OVCAR-8 ovarian, with U251 CNS, with SK-OV-3 ovarian, in the assay with SK-MEL-5 melanoma and in the assay with A549 NSCLC was > 100 µM throughout. In addition, the TGI with 786-0 renal, with NCI-H23 lung and with HT29 colon was > 100 µM throughout.

Turning to `COC(=O)C(=O)C(C(=O)C(=O)Nc1ccc(Cl)cc1Cl)c1nc2ccc(Cl)cc2[nH]c1=O` (stereo not given), the TGI in the assay with OVCAR-8 ovarian, with U251 CNS, with SK-OV-3 ovarian, with SK-MEL-5 melanoma, in the assay on A549 NSCLC and with 786-0 renal was > 100 µM throughout. Also, the TGI with HCT-116 colon, in the assay on NCI-H23 lung and in the assay on HT29 colon was > 100 µM each time.

For the molecule `COc1ccc(OC)c(-c2cc(-c3ccc(Cl)cc3)nn2-c2ccc(S(N)(=O)=O)cc2)c1`, the GI50 in the assay with OVCAR-8 ovarian was 11.3 µM; with SK-MEL-5 melanoma, 14.5 µM; in the assay with A549 NSCLC, 7.84 µM; with 786-0 renal it was 13.2 µM; in the assay with NCI-H23 lung it was 13.4 µM. In addition, the TGI in the assay with OVCAR-8 ovarian worked out at 34.6 µM; in the assay on SK-MEL-5 melanoma, 35.4 µM; in the assay on A549 NSCLC, 51.9 µM; in the assay on 786-0 renal, 27.1 µM; in the assay on NCI-H23 lung, 28.3 µM.

Take `O=C(CCCCCn1c2ccccc2c2c3c(c4c5ccccc5[nH]c4c21)C(=O)N(O)C3=O)N1CCOCC1`: the GI50 in the assay on RXF 393 renal was 1.81 µM; in the assay on OVCAR-8 ovarian it was 2.84 µM; in the assay on U251 CNS, 2.26 µM; in the assay with SK-OV-3 ovarian it was 2.27 µM; in the assay with SK-MEL-5 melanoma, 1.64 µM; with A549 NSCLC, 4.22 µM. The GI50 was 1.99 µM in the assay on 786-0 renal, 2.11 µM with NCI-H23 lung and 2.42 µM in the assay on HT29 colon. Also, the TGI is 3.37 µM with RXF 393 renal; 7.86 µM in the assay with OVCAR-8 ovarian; 5.59 µM with U251 CNS; 5.81 µM with SK-OV-3 ovarian; 3.06 µM in the assay on SK-MEL-5 melanoma; 24 µM in the assay on A549 NSCLC. In addition, the TGI in the assay on 786-0 renal worked out at 4.91 µM; with NCI-H23 lung, 5.47 µM; in the assay on HT29 colon, 5.88 µM.

For the molecule `CCCCC#Cc1c(I)n(C2OC(CO[Si](C)(C)C(C)(C)C)C3OC(C)(C)OC32)c(=O)[nH]c1=O` (stereo not given), the GI50 was 1.5 µM with RXF 393 renal; 3.73 µM with OVCAR-8 ovarian; 21.9 µM in the assay on U251 CNS; 16.6 µM with A549 NSCLC; 15.4 µM in the assay on 786-0 renal; 5.52 µM with HCT-116 colon. Also, the GI50 is 13 µM in the assay on NCI-H23 lung and 8.21 µM in the assay on HT29 colon. In addition, the TGI is 5.46 µM in the assay with RXF 393 renal; 15.9 µM in the assay with OVCAR-8 ovarian; > 100 µM in the assay on U251 CNS; 34.2 µM in the assay on A549 NSCLC; 29 µM in the assay on 786-0 renal; 17.9 µM with HCT-116 colon. For the same molecule, the TGI is 31.3 µM with NCI-H23 lung and 22.1 µM in the assay on HT29 colon.

As for `CC(C)CCC[C@@H](C)C1CCC2[C@@H]3CC=C4C[C@@H](OC(=O)CCC(=O)NCC[N+](C)(C)CCCS(=O)(=O)[O-])CC[C@]4(C)C3CC[C@@]21C` (stereo not given in full), the TGI in the assay with RXF 393 renal is 24.2 µM; in the assay with OVCAR-8 ovarian it was 35 µM; in the assay on U251 CNS it was 33.9 µM; in the assay with SK-OV-3 ovarian, > 100 µM; with A549 NSCLC, 37.8 µM; in the assay on 786-0 renal, 67.9 µM. Further, the TGI in the assay on HCT-116 colon was found to be 63.1 µM; in the assay on HT29 colon, 80.3 µM.

For `COc1ccc2c(c1)C(CCN)C(=O)N2` (stereo not given), the TGI in the assay with OVCAR-8 ovarian, in the assay on U251 CNS, in the assay on SK-OV-3 ovarian, in the assay with SK-MEL-5 melanoma, with A549 NSCLC and with 786-0 renal was > 100 µM in each case. In addition, the TGI in the assay with HCT-116 colon, in the assay with NCI-H23 lung and in the assay with HT29 colon was > 100 µM each time.

For `O=C(CC1Sc2ccccc2NC1=O)Nc1ccc([N+](=O)[O-])cc1[N+](=O)[O-]` (stereo not given), the TGI came to 26.3 µM with RXF 393 renal; 31 µM in the assay with OVCAR-8 ovarian; 30.3 µM in the assay on U251 CNS; 33.4 µM in the assay on SK-MEL-5 melanoma; 88.7 µM in the assay with A549 NSCLC; 31.7 µM in the assay with 786-0 renal. The figures for the TGI with HCT-116 colon, in the assay with NCI-H23 lung and in the assay on HT29 colon were 29.8 µM, 27.2 µM and 33.1 µM, respectively.

In the case of `CCCCCCCCOCC(O)COC` (stereo not given), the TGI in the assay with OVCAR-8 ovarian, in the assay on U251 CNS, in the assay with SK-OV-3 ovarian, with SK-MEL-5 melanoma, in the assay with A549 NSCLC and with 786-0 renal was > 100 µM each time. Further, the TGI with HCT-116 colon, with NCI-H23 lung and with HT29 colon was > 100 µM each time.

As to `O=C1/C=C(/c2ccc(O)cc2)[C@H](O)Cc2ccc(OC3OC(CO)C(O)C(O)C3O)cc2O1` (stereo not given in full) (tested in a mixture with another compound), the TGI with OVCAR-8 ovarian, with U251 CNS, with SK-OV-3 ovarian, with SK-MEL-5 melanoma, with A549 NSCLC and with 786-0 renal was > 100 µM in each case. In addition, the TGI with HCT-116 colon, with NCI-H23 lung and in the assay on HT29 colon was > 100 µM in each case.

Take `N#CC1=C(N)NC(=S)NC1c1ccc(-c2ccc(-c3nc4ccccc4s3)cc2)o1` (stereo not given): the GI50 was 35.1 µM in the assay on OVCAR-8 ovarian; 11.8 µM in the assay with U251 CNS; > 50 µM in the assay on SK-OV-3 ovarian; 14.6 µM in the assay on SK-MEL-5 melanoma; 31.6 µM with A549 NSCLC; > 50 µM with 786-0 renal. For the same molecule, the GI50 in the assay with HCT-116 colon was 13 µM; in the assay with NCI-H23 lung it was 33.2 µM. Further, the TGI with OVCAR-8 ovarian is > 50 µM; in the assay with U251 CNS it was 32.2 µM; in the assay with SK-OV-3 ovarian, > 50 µM; with SK-MEL-5 melanoma, 39.4 µM; in the assay on A549 NSCLC it was > 50 µM; with 786-0 renal, > 50 µM. Also, the values for the TGI in the assay with HCT-116 colon and with NCI-H23 lung were 31.8 µM and > 50 µM, respectively.

`COc1cc(OC)c(Oc2cccc(OC)c2OC)c(OC)c1`: the TGI with OVCAR-8 ovarian, in the assay on U251 CNS, in the assay with SK-OV-3 ovarian, in the assay on SK-MEL-5 melanoma, with A549 NSCLC and in the assay on 786-0 renal was > 100 µM in each case. Moreover, the TGI in the assay on HCT-116 colon, in the assay on NCI-H23 lung and in the assay on HT29 colon was > 100 µM throughout.
